Laboratory results reported in patent publication US20140336109A1, “MODULATION OF GHRELIN LEVELS AND GHRELIN/UNACYLATED GHRELIN RATIO USING UNACYLATED GHRELIN” (Alize Pharma SAS, priority 2011, published 2014).
Where no end group is shown, it is not given here.

Legend:
T2DM subjects = experiment: Side effects and laboratory safety parameters during UAG infusion; type: in vivo, human; conditions: during infusions with UAG 3 and 10 μg/kg/hr, 15 hours
Description: A continuous overnight (15 hours) infusion of two doses of UAG (3 μg UAG/kg/hr and 10 μg UAG/kg/hr) versus placebo in a cross-over model on the AG concentrations was performed in eight overweight subjects with type 2 diabetes. FIG. 1 depicts a schematic representation of the study protocol. Glucose and insulin responses to a standard breakfast meal (SBM) in the subjects and reasonable metabolic control were assessed.
Study design—Single-center, investigator initiated, double blind and placebo controlled randomized study. During the first visit medical history, medication use and vital signs of subjects were checked. Blood samples were also taken for chemistry and hematology analysis. […]
Standard breakfast meal (SBM) consisted of: • 3 slices wheat bread; p1 3 portions of margarine; • 2 slices of cheese (48% fat); • 1 portion of jam; • 1 cup of whole milk; and • 1 boiled egg; for a total of 714 kcal (17% proteins; 46% fat; and 37% carbohydrates). […] At each of the 3 visits, the following safety parameters were assessed: hemoglobin, hematocrit, platelet count, WBC count, RBC count, and differential and were determined using Sysmex XE 2100, Firma Sysmex, Ecustraat 11, 4879 NP Etten-Leur. […] Serum glucose levels (using the in-house glucokinase assay) were also assessed every 30 minutes and starting before, and continuing for 4 hours after, the SBM. […]

[1] = U.S. Pat. Nos. 8,222,217 and 8,318,664; cited from earlier work
Sprague-Dawley rats = experiment: AG-induced food intake in rats; type: in vivo; conditions: rat; i.p. 42 μg/kg + AG 13 μg/kg; 30 min, 1 h, 2 h
Description: With respect to the experimental data presented in FIG. 8, Sprague-Dawley rats of 7 weeks of age, weighing between 275 g and 300 g, were fed a pellet diet ad libitum and were singly housed in plastic cage. The experiment was performed at 2.5 h after the onset of the light cycle in freely fed rats. The rates were i.p. injected simultaneously with vehicle plus vehicle, vehicle+AG (13 μg/kg) or cyclised UAG (6-13) (SEQ ID NO: 25) (42 μg/kg)+AG (13 μg/kg). Immediately after the completion of the i.p. injection in rats, the night-ad-libitum food was removed and replaced by 2 pellets for each animal, previously weighed, placed into the top of the cage. Food intake was calculated as the difference between the food weight before and after the feeding period at each time interval (30 min, 1 h, and 2 h). Cumulative food intake was calculated by summating the values of the different time periods.

Compound	activity on glucose, insulin and lipid metabolisms relative to UAG full length [1]	further results
CC(C)C[C@H](NC(=O)[C@H](CCCCN)NC(=O)[C@H](C)NC(=O)[C@@H]1CCCN1C(=O)[C@@H]1CCCN1C(=O)[C@H](CCCCN)NC(=O)[C@H](CCCCN)NC(=O)[C@H](CO)NC(=O)[C@H](CCC(=O)O)NC(=O)[C@H](CCCCN)NC(=O)[C@H](CCCNC(=N)N)NC(=O)[C@H](CCC(N)=O)NC(=O)[C@H](CCC(N)=O)NC(=O)[C@@H](NC(=O)[C@H](CCCNC(=N)N)NC(=O)[C@H](CCC(N)=O)NC(=O)[C@H](Cc1cnc[nH]1)NC(=O)[C@H](CCC(=O)O)NC(=O)[C@@H]1CCCN1C(=O)[C@H](CO)NC(=O)[C@H](CC(C)C)NC(=O)[C@H](Cc1ccccc1)NC(=O)[C@H](CO)NC(=O)[C@H](CO)NC(=O)CN)C(C)C)C(=O)N[C@@H](CCC(N)=O)C(=O)N1CCC[C@H]1C(=O)N[C@@H](CCCNC(=N)N)C(=O)O [UAG]		laboratory evaluations (chemistry or parameters) (T2DM subjects): no significant changes; side effects reported by subjects (T2DM subjects): did not report more side effects than placebo
EHQRVQ [UAG (8-13)]	retain the activity of UAG full length	
Glu-His-Gln-Arg (EHQR; listed as Homo sapiens) [UAG (8-11)]	retain the activity of UAG full length	
Glu-His-Gln-Arg-Val (EHQRV; listed as Homo sapiens) [UAG (8-12)]	retain the activity of UAG full length	
His-Gln-Arg (HQR; listed as Homo sapiens) [UAG (9-11)]	retain the activity of UAG full length	
His-Gln-Arg-Val (HQRV; listed as Homo sapiens) [UAG (9-12)]	retain the activity of UAG full length	
SPEHQRVQ [UAG (6-13)]	retain the activity of UAG full length	
Ser-Pro-Glu-His-Gln-Arg-Val-Gln (cycl) (SPEHQRVQ; also: cyclic, linkage type not given here; listed as Homo sapiens) [cyclic UAG (6-13)]		orexigenic effects (food intake) induced by AG (Sprague-Dawley rats): able to counteract the orexigenic effects induced by AG
